Assays:
[1] = system: A549 cells; test: Cell growth inhibition assay (CellTiter-Glo) and Bliss synergy analysis; type: cell-based; conditions: Homo sapiens, A549, 168 h; 7 days, estimated from four-parameter curve
Experimental: (§1) Cells were seeded in opaque-walled 96-well microplates at appropriate densities according to the growth curves (data no shown). On the following day cells were dosed with compounds. After 7 days treatments, cells viability was measured by adding 30μL CellTiter-Glo reagent (Promega) and incubated for 10 min at RT. Luminescence was measured by Envision plate reader (Perkin Elmer). For synergy analysis, the survival rates of the cells upon different treatment combinations were calculated based on the luminescence and analyzed by Combenefit software. The bliss independence model was used to analyzed the interaction between two tested articles to determine if the interaction between those two tested articles was synergistic, independent or antagonistic.

[2] = system: Daudi cells; test: as above; type: cell-based; conditions: Homo sapiens, 168 h, 7 days; for IC50: estimated from four-parameter curve
Experimental: as §1

[3] = system: KP-4 cells; test: as above; type: cell-based; conditions: Homo sapiens, KP-4, 168 h; 7 days, estimated from four-parameter curve
Experimental: as §1

[4] = system: MDA-MB-436 cells; test: as above; type: cell-based; conditions: Homo sapiens, MDA-MB-436, 168 h; 7 days, estimated from four-parameter curve
Experimental: as §1

[5] = system: MIA PaCa-2 cells; test: as above; type: cell-based; conditions: Homo sapiens, MIA PaCa-2, 168 h; 7 days, estimated from four-parameter curve
Experimental: as §1

[6] = system: NCI-H23 cells; test: as above; type: cell-based; conditions: Homo sapiens, NCI-H23, 168 h; 7 days, estimated from four-parameter curve
Experimental: as §1

[7] = system: HCC15 cells; test: Cell growth inhibition assay (CellTiter-Glo); type: cell-based; conditions: Homo sapiens, HCC15, 168 h; 7 days, estimated from four-parameter curve
Experimental: as §1

[8] = system: HCC1937 cells; test: Cell growth inhibition assay (CellTiter-Glo); type: cell-based; conditions: Homo sapiens, HCC1937, 168 h; 7 days, estimated from four-parameter curve
Experimental: as §1

[9] = system: HuP-T4 cells; test: Cell growth inhibition assay (CellTiter-Glo); type: cell-based; conditions: Homo sapiens, HuP-T4, 168 h; 7 days, estimated from four-parameter curve
Experimental: as §1

[10] = system: MDA-MB-231 cells; test: Cell growth inhibition assay (CellTiter-Glo); type: cell-based; conditions: Homo sapiens, MDA-MB-231, 168 h; 7 days, estimated from four-parameter curve
Experimental: as §1

[11] = system: MDA-MB-468 cells; test: Cell growth inhibition assay (CellTiter-Glo); type: cell-based; conditions: Homo sapiens, MDA-MB-468, 168 h; 7 days, estimated from four-parameter curve
Experimental: as §1

[12] = system: NCI-H1563 cells; test: Cell growth inhibition assay (CellTiter-Glo); type: cell-based; conditions: Homo sapiens, NCI-H1563, 168 h; 7 days, estimated from four-parameter curve
Experimental: as §1

[13] = system: NCI-H526 cells; test: Cell growth inhibition assay (CellTiter-Glo); type: cell-based; conditions: Homo sapiens, NCI-H526, 168 h; 7 days, estimated from four-parameter curve
Experimental: as §1

[14] = system: Raji cells; test: Cell growth inhibition assay (CellTiter-Glo); type: cell-based; conditions: Homo sapiens, 168 h, 7 days, estimated from four-parameter curve
Experimental: as §1

[15] = system: Z-138 cells; test: Cell growth inhibition assay (CellTiter-Glo); type: cell-based; conditions: Homo sapiens, Z-138, 168 h; 7 days, estimated from four-parameter curve
Experimental: as §1

[16] = system: 15 human tumor cell lines; test: Cell growth inhibition assay, panel summary; type: cell-based; conditions: lowest to highest, upper end printed as over 25 μM, read-out: IC50 values across the 15 cell lines
Experimental: as §1

[17] = system: normal WI-38 cells; test: Cell growth inhibition assay, normal cells; type: cell-based; conditions: Homo sapiens, read-out: IC50, normal cell viability
Experimental: as §1

[18] = system: Daudi xenograft; test: Daudi xenograft mouse model, tumor growth inhibition; type: in vivo; conditions: 2 mg/kg Cisplatin intraperitoneally every week
Experimental: Daudi xenograft mouse model was established by subcutaneously implantation of 10^7 cells into the female BABL/c nude mice at the age of 6-8 weeks. When tumors reached approximately 100-120 mm^3, the mice were randomly grouped into five groups (n=6) and treated with vehicle control orally every day, 30 mg/kg or 100 mg/kg Cpd-4 orally every day, 2 mg/kg Cisplatin intraperitoneally every week, or combination of 30 mg/kg Cpd-4 and 2 mg/kg Cisplatin. Cpd-4 was formulated in 30% PEG400 (Sigma) and 70% 10% vitamin E TPGS (Sigma) in water. Cisplatin was reconstituted in normal saline. Cpd-4 was administrated starting from Day 0 and Cisplatin was administrated starting from on Day1. Cisplatin was administrated 4 hours after the treatment of Cpd-4 at day 1, 8 and 15. Tumor volume was monitored twice a week.
The long diameter (a) and the short diameter (b) of the tumor were measured using caliper and the tumor volume (v was calculated using the following formula: […]
Tumor growth inhibition was calculated using the formula:
TGI(%)=(1−(Vt(treatment group)−V0(treatment group))/Vt(vehicle group)−V0(vehicle group))×100%
V0 is the tumor volume of the animal when treatment starts; vtis the tumor volume of the animal someday after treatment. The statistics of tumor volume was analyzed by two-way ANOVA followed by Tukey’s multiple comparisons test using GraphPad Prism 8.0.

| IC50 [1] [µM] | IC50 [2] [µM] | IC50 [4] [µM] | IC50 [5] [µM] | IC50 [6] [µM] | IC50 [7] [µM] | IC50 [8] [µM] | IC50 [10] [µM] | IC50 [11] [µM] | IC50 [12] [µM] | IC50 [13] [µM] | IC50 [14] [µM] | IC50 [16] [µM] | SMILES | IC50 [3] [µM] | IC50 [9] [µM] | IC50 [15] [µM] | inhibition at 0.25 µM ([2]; Cpd-2 250 nM) [%] | IC50 [17] [µM] | TGI [18] [%] |
| --- | --- | --- | --- | --- | --- | --- | --- | --- | --- | --- | --- | --- | --- | --- | --- | --- | --- | --- | --- |
| 17.8 | 5.78 | 0.134 | 7.16 | 3.3 | 9.17 | 10.7 | 4.92 | 5.55 | > 25 | 3.91 | 4.87 | 0.134 to 25 | O=C(c1cc(Cc2n[nH]c(=O)c3ccccc23)ccc1F)N1CCN(C(=O)C2CC2)CC1 [Olaparib, olaparib] | 7.09 | 7.71 | 1.49 | – | – | – |
| 3.96 | 0.048 | 2.65 | 4.73 | 3.54 | 2.02 | 3.29 | 5.15 | 0.63 | 12.8 | 0.353 | 0.164 | – | CC(C)OC(=O)Nc1ccc(-c2cnc(C3CCC(NC(=O)OC(C)C)CC3)s2)c(S(=O)(=O)C2CC2)c1 (stereo not shown) [Cpd-2] | 3.17 | 7.99 | 4.57 | 41.1 | > 10 | – |
| – | – | – | – | – | – | – | – | – | – | – | – | – | N.N.[Cl][Pt][Cl] [Cisplatin, cisplatin] | – | – | – | – | – | 20.7 |

From article PMC9136011, “Targeting the Homologous Recombination Pathway in Cancer With a Novel Class of RAD51 Inhibitors” (Frontiers in Oncology, 2022)
